Data: US11214805B2, “Targeted nanocarriers for the administration of immunosuppressive agents” (MUSC FOUNDATION FOR RESEARCH DEVELOPMENT, priority 2014, dated 2022)

Tests used:
MHC I = assay: Western blot of MHC I in lysates of HUVEC treated with pro-inflammatory cytokine cocktail; format: cell-based, Human; conditions: IL-1β, INFγ, TNFα cocktail; 10 or 100 ng/mL
Method: Cells were then lysed using mammalian protein extraction reagent (Pierce, Ill.) supplemented with Halt Protease and Phosphatase Inhibitor Cocktails. Lysates were centrifuged at 10,000 rpm for 15 minutes. All western blot reagents were purchased from Bio-Rad (CA) unless specified. The protein concentration of each lysate was determined via Bradford calorimetric Assay (Thermo Scientific, PA; 232225), and 1.6 μg of protein from each whole cell lysate was added to a 4-20% precast gel and subjected to SDS-page electrophoresis. Protein was transferred to a PVDF membrane by semi-dry transfer, where it was stained with anti-MHC class I antibody (W6) and blocked overnight with TBS-T (Tris-Buffered Saline-Tween 20) containing 5% nonfat dry milk and 0.5% BSA. An appropriate HRP-conjugated secondary antibody was added to fresh block solution at a 1:1000 dilution to incubate for 1 hour at room temperature. The protein band was then detected by enhanced chemiluminescence (ECL).

[1] = system: transplanted tracheas (chronic rejection); conditions: graft stored 4 hrs at 4° C. in UW solution with additive; harvested 28 days after transplantation
From the text: Twenty eight days later transplanted tracheas were harvested and assessed for the degree of chronic rejection.

Structure (SMILES): CO[C@H]1C[C@@H]2CC[C@@H](C)[C@@](O)(O2)C(=O)C(=O)N2CCCC[C@H]2C(=O)O[C@H]([C@H](C)C[C@@H]2CC[C@@H](O)[C@H](OC)C2)CC(=O)[C@H](C)/C=C(\C)[C@@H](O)[C@@H](OC)C(=O)[C@H](C)C[C@H](C)/C=C/C=C/C=C/1C [free rapamycin, rapamycin]
- level of MHC I expression in HUVEC (MHC I): able to down regulate
- degree of chronic rejection (fibrosis, inflammation, epithelium) as compared to UW alone [1]: reduced fibrosis, inflammation and preserved normal pseudo stratified respiratory epithelium
